In brackets after ≈: the same amount, converted by molar mass.
Tests used:
[1] = tested on: GL261 cells modified to express mNectin1; test: Orthotopic mNectin1-expressing GL261 glioblastoma model, intratumoral virus injection, survival; type: in vivo, mice; conditions: co-expressed with the mIL12 and anti-PD1 payload; GL261-luc-N1
Method: In vivo experiments were conducted to test the efficacy of the HSV oncolytic virus encoding different payload molecules against glioblastoma. Two orthotopic mouse models were used. One orthotopic model used CT2A cells modified to express FLuc which enables imaging post-implantation. The other orthotopic model used GL261 cells modified to express mNectin1, which enabled HSV infection, and also to express FLuc which enabled imaging post-implantation. Cells were implanted intracranially in 12-week-old C57B16 mice by stereotactic injection, and one week later the tumors were injected with the indicated viruses.
The control virus contained only the BAC sequences but not the payload sequence. In the first set of experiments, viruses encoding mouse IL-12 (mIL-12) and/or anti-PD-1 antibody and the control virus were each injected intratumorally at the indicated time and dosage according to FIG. 22A and FIG. 22B.
For the combination screens, GL261-luc-N1 cells were intracranially implanted in 12-week-old C57B16 mice, then 1 week later the tumors were injected with the combination of viruses encoding various candidate payloads.
GL261-luc-N1 or CT2A-luc-N1 cells were intracranially implanted in 12-week-old C57B16 mice, then 1 week later the tumors were injected with the indicated viruses.

[2] = dosed orally; cited from earlier work
[3] = tested on: ONCR-1010 with UL30-L774F mutation (ONCR-1012); test: Acyclovir sensitivity plaque titer assay on Vero cell monolayers; type: cell-based, HSV; conditions: 96 h, 90% reduction in plaque titer, 4 days
Method: (§1) Acyclovir can be used as a prodrug in HSV-TK mediated suicide gene therapy of cancer, which requires its phosphorylation by HSV thymidine kinase (TK). Virus sensitivity to acyclovir was assayed by adding increasing concentrations of the drug to intact Vero cell monolayers and then infecting with a standard dose of virus. The Vero cell monolayers were incubated for 4 days to allow for virus growth, and then the virus was harvested and the corresponding lysates assayed for virus by plaque assay. The IC90 was calculated as the amount of acyclovir that produced a 90% reduction in plaque titer compared to the untreated control.

[4] = tested on: ONCR-1010; test: as above; type: cell-based, HSV; conditions: 96 h, 90% reduction in plaque titer, 4 days
Method: as §1

Molecule	efficacy in combination screen (survival) [1]	bioavailability of acyclovir in the CNS [2]	IC90 [3] [µg/mL]	IC90 [4] [µg/mL]
15-hydroxyprostaglandin dehydrogenase [PGDH, 15-hydroxyprostaglandin dehydrogenase [NAD(+)]]	improved efficacy			
Nc1nc2c(ncn2COCCO)c(=O)[nH]1 [acyclovir]		about 1.76 ug/ml	1.84 (≈ 8.17 µM)	0.43 (≈ 1.91 µM)

Source: patent publication US20250049867A1, “[…] HERPESVIRUSES” (VIROGIN BIOTECH CANADA LTD., priority 2021, published 2025)
